Source: ChEMBL document CHEMBL1201862, “PubChem BioAssay data set” (2004)
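Values below derive from 48-hour exposures of cells grown in 96-well plates, with endpoints linearly interpolated between the two concentrations bracketing the appropriate inhibition level. GI50 = concentration required for 50% inhibition of growth.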 The source made the active and inactive calls. No stated cut-off is given here; in the data, active = GI50 up to about 1.1 µM and inactive = higher.

Legend:
Assay in all cases: NCI-60 cell line screen, 48 h
A549 = system: A549
CAKI-1 = system: CAKI-1
COLO 205 = system: COLO 205
DMS-114 = system: DMS-114
EKVX = system: EKVX
HCT-116 = system: HCT-116
HT-29 = system: HT-29
LOX IMVI = system: LOX IMVI
M19-MEL = system: M19-MEL
MOLT-4 = system: MOLT-4
NCI-H460 = system: NCI-H460
NCI-H522 = system: NCI-H522
RPMI-8226 = system: RPMI-8226
SF-295 = system: SF-295
SF-539 = system: SF-539
SK-OV-3 = system: SK-OV-3
SN12C = system: SN12C
SW-620 = system: SW-620

Measured: GI50

Nc1ccc(C(=O)N/C(=C\c2cccc([N+](=O)[O-])c2)c2nc3ccccc3[nH]2)cc1
inactive: A549 51.3 µM | CAKI-1 47 µM | COLO 205 > 100 µM | DMS-114 29.4 µM | EKVX > 88.1 µM | HCT-116 41.4 µM | HT-29 > 100 µM | LOX IMVI > 100 µM | M19-MEL > 100 µM | MOLT-4 > 100 µM | NCI-H460 74.8 µM | NCI-H522 36.6 µM | RPMI-8226 > 100 µM | SF-295 28.4 µM | SF-539 22.8 µM | SK-OV-3 29.2 µM | SN12C 83.9 µM | SW-620 > 100 µM

CC(=O)c1ccc(NC(=O)COC(=O)c2cccc3c(=O)c4ccccc4[nH]c23)cc1
inactive: A549 45.4 µM | CAKI-1 > 100 µM | COLO 205 33.6 µM | DMS-114 34.8 µM | EKVX > 100 µM | HCT-116 12.2 µM | HT-29 45.5 µM | LOX IMVI 13.4 µM | M19-MEL 25.5 µM | MOLT-4 > 100 µM | NCI-H460 22.6 µM | NCI-H522 72.6 µM | SF-295 15.8 µM | SF-539 8.91 µM | SK-OV-3 67.8 µM | SN12C 16.1 µM | SW-620 52.8 µM

CC[N+](CC)(CC)Cc1cc2ccccc2n1C(=O)OC
inactive: A549 > 100 µM | CAKI-1 > 100 µM | COLO 205 > 100 µM | DMS-114 > 100 µM | HCT-116 > 100 µM | HT-29 > 100 µM | M19-MEL > 100 µM | MOLT-4 > 100 µM | NCI-H460 > 100 µM | NCI-H522 > 100 µM | RPMI-8226 > 100 µM | SF-295 > 100 µM | SF-539 > 100 µM | SW-620 > 100 µM

CC(C)N(C(=O)C12C3C4C1C1C2C3C41C(O)C(C)(C)C)C(C)C (centres undefined)
inactive: A549 > 50 µM | CAKI-1 > 50 µM | COLO 205 > 50 µM | DMS-114 > 50 µM | EKVX > 50 µM | HCT-116 > 50 µM | HT-29 > 50 µM | M19-MEL > 50 µM | MOLT-4 > 50 µM | NCI-H522 > 50 µM | SF-295 > 50 µM | SF-539 > 50 µM | SK-OV-3 > 50 µM | SN12C > 50 µM | SW-620 > 50 µM

COC(=O)C(=O)C1(CCC(C)=O)c2ccccc2-c2c(C)ccc(C)c21 (centres undefined)
inactive: A549 46.5 µM | CAKI-1 31.4 µM | COLO 205 34.7 µM | DMS-114 33.7 µM | EKVX 31.4 µM | HCT-116 35.7 µM | HT-29 32.7 µM | LOX IMVI 36.8 µM | M19-MEL 64 µM | MOLT-4 23.1 µM | NCI-H460 33 µM | NCI-H522 33.3 µM | RPMI-8226 26.2 µM | SF-295 81.7 µM | SK-OV-3 84.1 µM | SN12C 69.2 µM | SW-620 48.4 µM

CC12CC[C@H](O)C(C)(C)[C@H]1CC[C@](C)(O)C2COc1ccc2ccc(=O)oc2c1 (some centres undefined)
inactive: A549 81.7 µM | COLO 205 > 100 µM | DMS-114 85.3 µM | EKVX > 100 µM | HCT-116 50.9 µM | HT-29 > 100 µM | LOX IMVI > 100 µM | M19-MEL > 100 µM | MOLT-4 80.9 µM | NCI-H460 > 100 µM | NCI-H522 > 100 µM | RPMI-8226 99.1 µM | SF-295 > 100 µM | SF-539 > 100 µM | SK-OV-3 > 100 µM | SN12C > 100 µM | SW-620 > 100 µM

O=C(Cn1cc(I)c(C(=O)NCC(O)CO)n1)NCC(O)CO (centres undefined)
inactive: A549 > 100 µM | COLO 205 > 100 µM | DMS-114 > 100 µM | EKVX > 100 µM | HCT-116 > 100 µM | HT-29 > 100 µM | LOX IMVI > 100 µM | M19-MEL > 100 µM | MOLT-4 > 100 µM | NCI-H460 > 100 µM | NCI-H522 > 100 µM | RPMI-8226 > 100 µM | SF-295 > 100 µM | SF-539 > 100 µM | SK-OV-3 > 100 µM | SN12C > 100 µM | SW-620 > 100 µM

Clc1ccc(C(c2ccc(Cl)cc2)c2ccccn2)cc1
inactive: A549 18.5 µM | CAKI-1 23.2 µM | DMS-114 28.4 µM | EKVX 23 µM | HT-29 14.9 µM | LOX IMVI 16.7 µM | M19-MEL 31.4 µM | MOLT-4 21.4 µM | NCI-H460 17.1 µM | NCI-H522 21.4 µM | RPMI-8226 28.8 µM | SF-295 19.1 µM | SF-539 18.7 µM | SK-OV-3 34.6 µM | SN12C 17.3 µM | SW-620 20.1 µM

CCCN/C(N)=N/C#N
inactive: A549 > 100 µM | CAKI-1 > 100 µM | COLO 205 18 µM | DMS-114 19.4 µM | EKVX > 100 µM | HCT-116 67 µM | HT-29 30.8 µM | M19-MEL 77.6 µM | MOLT-4 > 100 µM | NCI-H460 > 100 µM | NCI-H522 > 100 µM | RPMI-8226 > 100 µM | SF-295 > 100 µM | SF-539 > 100 µM | SK-OV-3 > 100 µM | SN12C > 100 µM | SW-620 13.6 µM

O=C(/C=C\c1cccc2ccccc12)c1ccc(F)cc1
inactive: A549 26.8 µM | CAKI-1 17.3 µM | COLO 205 19 µM | DMS-114 14.4 µM | EKVX 18.8 µM | HCT-116 13.9 µM | HT-29 17.3 µM | M19-MEL 19.6 µM | MOLT-4 16 µM | NCI-H460 17.8 µM | NCI-H522 20.5 µM | RPMI-8226 4.21 µM | SF-295 19.3 µM | SF-539 21.5 µM | SK-OV-3 23.5 µM | SN12C 17.3 µM | SW-620 7.52 µM

COc1cccc(C=O)c1C(=O)c1cc(O)ccc1O
inactive: A549 > 100 µM | CAKI-1 23.7 µM | COLO 205 18.1 µM | DMS-114 11 µM | EKVX 18.5 µM | HCT-116 20.1 µM | HT-29 > 49.2 µM | LOX IMVI 37.8 µM | M19-MEL 30.8 µM | MOLT-4 3.13 µM | NCI-H460 > 100 µM | NCI-H522 > 10 µM | SF-295 > 100 µM | SF-539 > 100 µM | SK-OV-3 > 100 µM | SN12C > 84.1 µM | SW-620 17.1 µM

C[N+](C)(C)CC(=O)N/N=C(/Cc1cc(=O)oc2cc(O)ccc12)C(=O)Nc1ccc(Cl)cc1
inactive: A549 > 100 µM | CAKI-1 > 100 µM | COLO 205 > 100 µM | DMS-114 > 100 µM | EKVX > 100 µM | HCT-116 > 100 µM | HT-29 > 100 µM | M19-MEL > 100 µM | MOLT-4 > 100 µM | NCI-H460 > 100 µM | NCI-H522 > 100 µM | RPMI-8226 > 100 µM | SF-295 > 100 µM | SF-539 > 100 µM | SK-OV-3 > 100 µM | SN12C > 100 µM | SW-620 > 100 µM
